Consider 18 compounds from publication PMC12526212, “Novel Isolongifolenone-Based Caprolactam Derivatives as Potential Anticancer Agents via the p53/mTOR/Autophagy Pathway” (Molecules, 2025).

As usually defined, the IC50 is the point on the concentration scale where inhibition reaches its midpoint.

The structures appear in SMILES notation. Read-outs that look alike come from different tables or passages of the source.

One assay concerns HepG2. Description: CCK-8 antiproliferative assay, HepG2. Format: cell-based. To be noted: Homo sapiens, read-out: IC50 HepG2. Here is the method: (§1) After synthesis and characterization, the isolongifolenone bicyclocaprolactam derivatives were evaluated for their in vitro antiproliferative activity against three cancer cell lines (MCF-7, HepG2, A549) using a CCK-8 assay. […] In general, the antiproliferative activities of most of these compounds were similar, irrespective of whether electron-withdrawing or electron-donating substituents were introduced in the phenoxy ring.
(§2) Three cancer cell lines (human breast adenocarcinoma cells MCF-7, human lung adenocarcinoma epithelial cells A549, and human hepatocellular carcinoma cells HepG2) were obtained from the Cell Bank of the Chinese Academy of Sciences (Shanghai, China). LO2 human normal liver cells were also purchased from STEM RECELL (Beijing, China, STM-CL-5770). The anti-proliferation activity of compounds was tested on three cancer cell lines. The cytotoxicity of compounds as tested on normal cell line (human normal liver cells LO2). Cells were seeded at a density of 5000 cells per well in 96-well plates. Natural product piperlongumine was used as the positive control. All experiments were performed in triplicate. Three cancer cell lines were cultured in High DMEM medium or RIPM 1640 containing 10% FBS (Sijiqing, Hangzhou, China) and 1% antibiotics at 37 °C in a 5% CO2 incubator. The experimental cells were seeded in a 96-well plate at 5000 cells per well and incubated for 24 h. The old medium was replaced with experimental medium, and the cells were cultured for 48 h. Afterward, 10 µL of CCK-8 solution was added to each well, and the cells were incubated for 3 h. The absorbance at 450 nm was measured using a microplate reader.

For the next assay, the system named is A549. Description: CCK-8 antiproliferative assay, A549. To be noted: Homo sapiens, read-out: IC50 A549. Format: cell-based. Here is the method:
as §1, §2
(Formazan colour is commonly taken as a measure of viable cells.)

The test system of a further assay is LO2. The assay is described as follows: CCK-8 cytotoxicity on normal cell line LO2. The following applies: Homo sapiens, L02; normal liver cells, CCK-8, 48 h, mean ± SD of three experiments. Format: cell-based. As to the method: as §2
In a further assay the test system is MCF-7. Description: CCK-8 antiproliferative assay, MCF-7. Format: cell-based. The following applies: Homo sapiens, read-out: IC50 MCF-7. As to the method:
as §1, §2

The subject of assay [1] is three cancer cell lines (MCF-7, HepG2, A549). Description: CCK-8 antiproliferative assay, three cancer cell lines together. Format: cell-based, human. As to the method:
as §1, §2

Setting [2] is: HepG2, CCK-8, 48 h, mean ± SD of three experiments.
Where [3] appears, read: A549, CCK-8, 48 h, mean ± SD of three experiments.
[4] abbreviates: MCF7, CCK-8, 48 h, mean ± SD of three experiments.

`CC1(C)C2=CC(=O)N(C(=O)C=Cc3cccc(Br)c3)CC(C)(C)C23CCC1C3` (centres unmarked) [E12, 5,5,9,9-Tetramethyl-3-(3-(3-bromophenyl)acryloyl)-4,5,6,7,8,9-hexahydro-5a,8-methanobenzo[d]azepin-2(3H)-one]: the IC50 stood at 4.89 ± 0.52 µM with HepG2 (setting [2]), 3.55 ± 0.04 µM with A549 (setting [3]), 11.26 ± 0.06 µM with LO2 and 1.26 ± 0.19 µM with MCF-7 (setting [4]).
Regarding `CC1(C)C2=CC(=O)N(C(=O)C=Cc3ccc(F)c(F)c3)CC(C)(C)C23CCC1C3` (centres unmarked) [E19, 5,5,9,9-Tetramethyl-3-(3-(3,4-difluorophenyl)acryloyl)-4,5,6,7,8,9-hexahydro-5a,8-methanobenzo[d]azepin-2(3H)-one], the IC50 is 18.43 ± 0.16 µM in the assay on HepG2 (setting [2]), 18.9 ± 0.16 µM in the assay on A549 (setting [3]), > 20 µM in the assay with LO2 and 17.07 ± 0.06 µM in the assay with MCF-7 (setting [4]). Further, the “antiproliferative / anticancer activity” value in assay [1] was “good anticancer activity”.
Regarding `CC1(C)C2=CC(=O)N(C(=O)C=Cc3ccccc3Cl)CC(C)(C)C23CCC1C3` (centres unmarked) [E15, 5,5,9,9-Tetramethyl-3-(3-(2-chlorophenyl)acryloyl)-4,5,6,7,8,9-hexahydro-5a,8-methanobenzo[d]azepin-2(3H)-one], the IC50 in the assay on HepG2 (setting [2]) was 2.09 ± 0.16 µM; with A549 (setting [3]), 3.47 ± 0.16 µM; in the assay on LO2 it was > 20 µM; in the assay with MCF-7 (setting [4]), 1.58 ± 0.16 µM.
For the compound `COc1cc(/C=C/C(=O)N2CCC=CC2=O)cc(OC)c1OC` [PL, Piperlongumine, reference compound], the IC50 turned out to be 3.46 ± 0.25 µM in the assay on HepG2 (HepG2, 48 h); 5.83 ± 0.26 µM in the assay with A549 (A549, 48 h); 2.79 ± 0.43 µM in the assay with MCF-7 (MCF7, 48 h).
For the compound `CC1(C)C2=CC(=O)N(C(=O)C=Cc3ccccc3Br)CC(C)(C)C23CCC1C3` (centres unmarked) [E13, 5,5,9,9-Tetramethyl-3-(3-(2-bromophenyl)acryloyl)-4,5,6,7,8,9-hexahydro-5a,8-methanobenzo[d]azepin-2(3H)-one], the concentration for half-maximal inhibition (IC50) in the assay on HepG2 (setting [2]) is 2.67 ± 0.16 µM; in the assay with A549 (setting [3]), 4.64 ± 0.06 µM; in the assay on LO2 it was > 20 µM; in the assay with MCF-7 (setting [4]), 2.12 ± 0.04 µM.
For `COc1ccccc1C=CC(=O)N1CC(C)(C)C23CCC(C2)C(C)(C)C3=CC1=O` (centres unmarked) [E9, 5,5,9,9-Tetramethyl-3-(3-(2-methoxyphenyl)acryloyl)-4,5,6,7,8,9-hexahydro-5a,8-methanobenzo[d]azepin-2(3H)-one], the IC50 is 2.17 ± 0.24 µM in the assay on HepG2 (setting [2]), 2.13 ± 0.16 µM in the assay with A549 (setting [3]), > 20 µM in the assay on LO2 and 2.22 ± 0.07 µM with MCF-7 (setting [4]).
In the case of `CC1(C)C2=CC(=O)N(C(=O)C=Cc3ccc(Cl)cc3)CC(C)(C)C23CCC1C3` (centres unmarked) [E3, 5,5,9,9-Tetramethyl-3-(3-(4-chlorophenyl)acryloyl)-4,5,6,7,8,9-hexahydro-5a,8-methanobenzo[d]azepin-2(3H)-one], the IC50 was 7.09 ± 0.33 µM in the assay on HepG2 (setting [2]), 16.9 ± 0.27 µM in the assay with A549 (setting [3]), > 20 µM in the assay with LO2 and 18.97 ± 0.13 µM with MCF-7 (setting [4]).
For `CC1(C)C2=CC(=O)N(C(=O)C=Cc3cccc(Cl)c3)CC(C)(C)C23CCC1C3` (centres unmarked) [E7, 5,5,9,9-Tetramethyl-3-(3-(3-chlorophenyl)acryloyl)-4,5,6,7,8,9-hexahydro-5a,8-methanobenzo[d]azepin-2(3H)-one] the same measures were 6.67 ± 0.06 µM, 2.28 ± 0.1 µM, > 20 µM and 2.67 ± 0.11 µM.
In the case of `CC1(C)C2=CC(=O)N(C(=O)C=Cc3cccc(F)c3)CC(C)(C)C23CCC1C3` (centres unmarked) [E6, 5,5,9,9-Tetramethyl-3-(3-(3-fluorophenyl)acryloyl)-4,5,6,7,8,9-hexahydro-5a,8-methanobenzo[d]azepin-2(3H)-one], the IC50 in the assay with HepG2 (setting [2]) was 5.96 ± 0.05 µM; with A549 (setting [3]), 5.34 ± 0.16 µM; in the assay with LO2, > 20 µM; with MCF-7 (setting [4]) it was 5.32 ± 0.11 µM.
Consider `COc1ccc(C=CC(=O)N2CC(C)(C)C34CCC(C3)C(C)(C)C4=CC2=O)cc1` (centres unmarked) [E16, 5,5,9,9-Tetramethyl-3-(3-(4-methoxyphenyl)acryloyl)-4,5,6,7,8,9-hexahydro-5a,8-methanobenzo[d]azepin-2(3H)-one], for which the IC50 with HepG2 (setting [2]) is 2.44 ± 0.16 µM; with A549 (setting [3]) it was 5.28 ± 0.1 µM; in the assay on LO2, > 20 µM; in the assay with MCF-7 (setting [4]), 2.67 ± 0.18 µM.
Take `Cc1ccc(C=CC(=O)N2CC(C)(C)C34CCC(C3)C(C)(C)C4=CC2=O)cc1` (centres unmarked) [E2, 5,5,9,9-Tetramethyl-3-(3-(4-tolyl)acryloyl)-4,5,6,7,8,9-hexahydro-5a,8-methanobenzo[d]azepin-2(3H)-one]: the IC50 in the assay on HepG2 (setting [2]) is 6.6 ± 0.07 µM; in the assay with A549 (setting [3]), 3.18 ± 0.16 µM; in the assay on LO2, > 20 µM; in the assay with MCF-7 (setting [4]) it was 1.29 ± 0.04 µM.
As to `CC1(C)C2=CC(=O)N(C(=O)C=Cc3ccc(Br)cc3)CC(C)(C)C23CCC1C3` (centres unmarked) [E14, 5,5,9,9-Tetramethyl-3-(3-(4-bromophenyl)acryloyl)-4,5,6,7,8,9-hexahydro-5a,8-methanobenzo[d]azepin-2(3H)-one], the 50% inhibitory concentration (IC50) was 2.38 ± 0.16 µM in the assay on HepG2 (setting [2]), 3.21 ± 0.16 µM in the assay on A549 (setting [3]), > 20 µM in the assay with LO2 and 1.27 ± 0.04 µM with MCF-7 (setting [4]).
Take `CC1(C)C2=CC(=O)N(C(=O)C=Cc3ccc(F)cc3)CC(C)(C)C23CCC1C3` (centres unmarked) [E1, 5,5,9,9-Tetramethyl-3-(3-(4-fluorophenyl)acryloyl)-4,5,6,7,8,9-hexahydro-5a,8-methanobenzo[d]azepin-2(3H)-one]: the IC50 was > 20 µM with HepG2 (setting [2]), 11.7 ± 0.16 µM with A549 (setting [3]), > 20 µM in the assay with LO2 and 9.18 ± 0.11 µM in the assay with MCF-7 (setting [4]).
Consider `CC1(C)C2=CC(=O)N(C(=O)C=Cc3cccnc3)CC(C)(C)C23CCC1C3` (centres unmarked) [E18, 5,5,9,9-Tetramethyl-3-(3-(pyridin-3-yl)acryloyl)-4,5,6,7,8,9-hexahydro-5a,8-methanobenzo[d]azepin-2(3H)-one], for which the IC50 in the assay on HepG2 (setting [2]), with A549 (setting [3]), in the assay on LO2 and in the assay on MCF-7 (setting [4]) was > 20 µM throughout. For the same compound, the “antiproliferative / anticancer activity” value in assay [1] was “entirely lost”.
Consider `Cc1ccccc1C=CC(=O)N1CC(C)(C)C23CCC(C2)C(C)(C)C3=CC1=O` (centres unmarked) [E5, 5,5,9,9-Tetramethyl-3-(3-(2-tolyl)acryloyl)-4,5,6,7,8,9-hexahydro-5a,8-methanobenzo[d]azepin-2(3H)-one], for which the concentration for half-maximal inhibition (IC50) was 1.86 ± 0.09 µM with HepG2 (setting [2]), 3.89 ± 0.44 µM in the assay with A549 (setting [3]), > 20 µM with LO2 and 2.86 ± 0.12 µM in the assay on MCF-7 (setting [4]).
For `COc1ccc(C=CC(=O)N2CC(C)(C)C34CCC(C3)C(C)(C)C4=CC2=O)cc1OC` (centres unmarked) [E17, 5,5,9,9-Tetramethyl-3-(3-(3,4-dimethoxyphenyl)acryloyl)-4,5,6,7,8,9-hexahydro-5a,8-methanobenzo[d]azepin-2(3H)-one], the IC50 with HepG2 (setting [2]) is 2.56 ± 0.16 µM; in the assay on A549 (setting [3]), 5.28 ± 0.08 µM; with LO2, > 20 µM; in the assay with MCF-7 (setting [4]), 2.16 ± 0.03 µM. Besides, the “antiproliferative / anticancer activity” value in assay [1] is “good anticancer activity”.
On to `CC1(C)C2=CC(=O)N(C(=O)C=Cc3ccccc3C(F)(F)F)CC(C)(C)C23CCC1C3` (centres unmarked) [E11, 5,5,9,9-Tetramethyl-3-(3-(2-(trifluoromethyl)phenyl)acryloyl)-4,5,6,7,8,9-hexahydro-5a,8-methanobenzo[d]azepin-2(3H)-one], for which the 50% inhibitory concentration (IC50) in the assay with HepG2 (setting [2]) is 4.53 ± 0.12 µM; in the assay with A549 (setting [3]), 18.3 ± 0.21 µM; with LO2, > 20 µM; in the assay on MCF-7 (setting [4]), 5.63 ± 0.3 µM.
For the compound `CC1(C)C2=CC(=O)N(C(=O)C=Cc3ccc(C(F)(F)F)cc3)CC(C)(C)C23CCC1C3` (centres unmarked) [E4, 5,5,9,9-Tetramethyl-3-(3-(4-(trifluoromethyl)phenyl)acryloyl)-4,5,6,7,8,9-hexahydro-5a,8-methanobenzo[d]azepin-2(3H)-one], the IC50 was > 20 µM in the assay on HepG2 (setting [2]), 14.98 ± 0.1 µM in the assay with A549 (setting [3]), > 20 µM with LO2 and 16.74 ± 0.16 µM with MCF-7 (setting [4]).
